PMC3638593, “1,4-dihydroxy-2-naphthoic Acid Induces Apoptosis in Human Keratinocyte: Potential Application for Psoriasis Treatment” (Evidence-based Complementary and Alternative Medicine : eCAM, 2013)
Values joined by “and” are separate entries in the source; they are usually repeats but may differ in a detail not shown here. Equal entries are not always repeated. Where two headings read alike, the source gives them in different places. * marks the point of attachment. Cbz = O=C(OCc1ccccc1)*; CH2F = FC*

Key:
Format in all cases: cell-based, human
HaCaT cells [1] = assay: Annexin V/propidium iodide staining, flow cytometry; conditions: 40 μM pretreatment 1 h, then DHNA 24 h
Procedure: After DHNA treatment, HaCaT cells were resuspended in annexin V binding buffer (10 mM HEPES, 140 mM NaCl, and 2.5 mM CaCl2, pH 7.4) and then incubated with FITC-conjugated annexin V (Biosource International, Inc., USA), and 0.5 μg/mL propidium iodide (PI) for 15 min at room temperature in the dark. Cells were analyzed on a FACSCanto flow cytometer (BD Biosciences, San Jose, CA, USA) immediately and then analyzed using WinMDI 2.9 (developed by Dr. J. Trotter, Scripps Institute, La Jolla, CA, USA). The total number of early (FITC+/PI−) and late (FITC+/PI+) apoptotic cells was assessed. In another experiment, HaCaT cells were preincubated with 40 μM pan-caspase inhibitor Z-VAD-FMK (BD Pharmingen, San Diego, CA, USA) for 1 h before exposure to DHNA.

[2] = system: IL-1α release from NCTC 2544 cells; assay: IL-1α release assay (ELISA)
Procedure: NCTC 2544 cells were seeded and treated with various concentrations of DHNA or dithranol for 72 h. After incubation, the microplate was centrifuged and conditioned medium was collected to determine the extracellular IL-1α (IL-1α release) using an IL-1α ELISA kit (Diaclone Research, France). All other steps were then according to the manufacturer's protocol. Results were expressed in pg/mL.

HaCaT cells [3] = assay: Proliferation assay (sulphorhodamine B) on HaCaT; conditions: Homo sapiens, read-out: IC50 on growth
Excerpt: (§1) The spontaneously immortalized human epidermal keratinocyte HaCaT cells were purchased from China Centre for Type Culture Collection, Wuhan, China. The human foreskin fibroblast Hs-68 cells were purchased from the American Type Culture Collection (Manassas, VA, USA). The human undifferentiated keratinocyte NCTC 2544 cells were provided by Interlab Cell Line Collection (Genoa, Italy) and the immortalized human epidermal melanocyte PIG1 cells were a gift from Dr Caroline Le Poole (Loyola University Chicago, Maywood, IL, USA). HaCaT and Hs-68 cells were maintained in DMEM, NCTC 2544 in RPMI 1640 and PIG1 cells in Medium 254 with Human Melanocyte Growth Supplement-2, respectively. All cells were cultured in complete medium containing 10% FBS, 100 μg/mL of streptomycin, and 100 U/mL of penicillin (Gibco Laboratories) at 37°C in a humidified atmosphere of 5% CO2. Cell culture experiments were carried out at 60–80% confluent.
(§2) The ethyl acetate extract (EA) of Rubia cordifolia L. was isolated as described. 1,4-dihydroxy-2-naphthoic acid (98%), dithranol (≥90%), and EA were dissolved in DMSO as stock. All cells were seeded and treated with various concentrations of DHNA, dithranol or EA. After treatment, cells were fixed with cold 50% trichloroacetic acid and incubated 1 h at 4°C. Cell was then washed with deionized water, air-dried, and stained with 0.4% (w/v) sulphorhodamine B for 30 min at room temperature. Unincorporated dye was removed with 1% acetic acid wash and the cell was again air-dried. Incorporated dye was then solubilized in 10 mM Tris base and absorbance was measured at 565/690 nm using a Sunrise microplate spectrophotometer (Tecan, Switzerland). IC50 were determined using GraphPad Prism 5.0 (GraphPad Software, San Diego, CA, USA).

NCTC 2544 cells = assay: Proliferation assay (sulphorhodamine B) on NCTC 2544; conditions: Homo sapiens, read-out: IC50 on growth
Excerpt: as §1, §2

| Compound | effect of pan-caspase inhibitor on DHNA-induced apoptosis (HaCaT cells [1]) | IL-1α release at concentrations below IC50 on NCTC 2544 ([2]; 2 to 3 μM or 0.45 to 0.68 μg/mL, 72 h) | IL-1α release versus vehicle control ([2]; 2 to 8 μM (0.45 to 1.81 μg/mL), 72 h) | concentration at which IL-1α release is significantly induced ([2]; NCTC 2544, 72 h, versus vehicle control) | IC50 (HaCaT cells [3]; incubation 48 h) | IC50 (HaCaT cells [3]; incubation 72 h) | IC50 (NCTC 2544 cells; NCTC 2544, incubation 48 h) | IC50 (NCTC 2544 cells; NCTC 2544, incubation 72 h) |
| --- | --- | --- | --- | --- | --- | --- | --- | --- |
| Cbz-Val-Ala-Asp-CH2F [reference compound] | partially blocked | – | – | – | – | – | – | – |
| O=C1c2c(O)cccc2Cc2cccc(O)c21 [Dithranol, dithranol, reference compound] | – | readily induced the release of this cytokine | induced significant release of this cytokine at all concentrations tested | 2 μM and 0.45 μg/mL | 24.8 µM and 5.6 µg/mL | 9.39 µM and 2.12 µg/mL | 6.21 µM and 1.41 µg/mL | 3.81 µM and 0.86 µg/mL |
